Data on three molecules can be found in patent publication US9426990B2, “Herbicidal agents containing aclonifen” (BAYER CROPSCIENCE AG, priority 2012, dated 2016).

The subject of assay [1] is Lolium spp. resistant to HRAC group A. Nature of the assay: greenhouse experiment, post-emergence treatment of resistant ryegrass biotypes (HRAC group A resistant). It counts as in vivo. The settings on record: post-emergence (PO, BBCH 11), about 3 weeks after application, dose g of AS/ha: aclonifen 225, pendimethalin 300, picolinafen 25, mixture 225 + 300 + 25, pinoxaden + cloquintocet-mexyl 60 + 15. How it is done: (§1) In the standard design of the test, seeds of various broad-leaved weed and weed grass biotypes (origins) were sown in a 8-13 cm diameter pot filled with natural soil of a standard field soil (loamy silt; non-sterile) and covered with a covering soil layer of about 1 cm. The pots were then cultivated in a greenhouse (12-16 h light, temperature day 20-22° C., night 15-18° C.) until the time of application. The pots were treated on a laboratory track sprayer with spray liquors comprising the compositions according to the invention, mixtures of the prior art or components used individually. Application of the active compounds or active compound combinations formulated as WG, WP, EC or otherwise was carried out at the appropriate growth stages of the plants. The amount of water used for spray application was 100-600 l/ha. After the treatment, the plants were returned to the greenhouses.
(§2) About 3 weeks after the application, the soil action or/and foliar action was assessed visually according to a scale of 0-100% in comparison to an untreated comparative group: 0%=no noticeable effect compared to the untreated comparative group; 100%=full effect compared to the untreated comparative group.
(§3) 2. Post-emergence action against weeds: seeds of various broad-leaved weed and weed grass biotypes (origins) were sown in a 8-13 cm diameter pot filled with natural soil of a standard field soil (loamy silt; non-sterile) and covered with a covering soil layer of about 1 cm. The pots were then cultivated in a greenhouse (12-16 h of light, temperature day 20-22° C., night 15-18° C.) until the time of application. […]
(§4) Insofar as herbicidal effects of the compositions according to the invention compared to mixtures of the prior art or compared to components applied individually against economically important mono- and dicotyledonous harmful plants were the center of attention, the synergistic herbicidal activities were calculated using Colby's formula (cf. S. R. Colby; Weeds 15 (1967), 20-22): E^C=(A+B+C)−(A×B+A×C+B×C)/100+(A×B×C)/10000 where: […]

For assay [2], the system named is Lolium spp. resistant to HRAC group B. Nature of the assay: greenhouse experiment, post-emergence treatment of resistant ryegrass biotypes (HRAC group B resistant). The conditions noted are these: post-emergence (PO, BBCH 11), about 3 weeks after application, dose g of AS/ha: aclonifen 225, pendimethalin 300, picolinafen 25, mixture 225 + 300 + 25, mesosulfuron + iodosulfuron + mefenpyr 15 + 3 + 45. It counts as in vivo. How it is done:
as §1, §2, §3, §4

`Nc1c([N+](=O)[O-])ccc(Oc2ccccc2)c1Cl` [(A) aclonifen, 2-chloro-6-nitro-3-phenoxybenzenamine]: the “herbicidal effect, visual assessment on a scale of 0-100% versus untreated comparative group” value was found to be 25% in assay [1] and 50% in assay [2].

For `O=C(Nc1ccc(F)cc1)c1cccc(Oc2cccc(C(F)(F)F)c2)n1` [(C) picolinafen, N-(4-fluorophenyl)-6-[3-(trifluoromethyl)phenoxy]-2-pyridinecarboxamide], the “herbicidal effect, visual assessment on a scale of 0-100% versus untreated comparative group” value in assay [1] worked out at 10%; in assay [2] it was 5%.

In the case of `CCC(CC)Nc1c([N+](=O)[O-])cc(C)c(C)c1[N+](=O)[O-]` [(B) pendimethalin, N-(1-ethylpropyl)-3,4-dimethyl-2,6-dinitrobenzenamine], the figures for the “herbicidal effect, visual assessment on a scale of 0-100% versus untreated comparative group” value in assay [1] and in assay [2] were 5% and 0%, respectively.
